Data taken from article PMC8011991 (Journal of medicinal chemistry, 2020).
Entries after “also recorded” stand apart in the source; their conditions may differ.

Columns and labels:
[1] = test system: NL4–3 Env pseudo-typed HIV-1 virus; assay: ELISA-based quantification of capsid; format: cell-based; settings: 10 μM compound
[2] = test system: Kunming mice; assay: Single-dose acute toxicity in mice; settings: intragastric
[3] = target: recombinant HIV-1 RT (Human immunodeficiency virus type 1 group M subtype B, UniProt P03366); assay: Recombinant HIV-1 RT inhibitory assay; format: biochemical; settings: at 0.2 μM
[4] = In vivo pharmacokinetics in rats; settings: rat, iv 2 mg/kg
[5] = in vitro; settings: human, microsomes

SMILES	increase of CA/p24 content of the produced virus compared to the DMSO control [1]	CLint scaled [5] [mL/min/kg]	other results
COc1ccc(N(C)C(=O)[C@H](Cc2ccccc2)NC(=O)CN2C(=O)Nc3ccccc3S2(=O)=O)cc1 [Compound 8a, (S)-2-(2-(1,1-dioxido-3-oxo-3,4-dihydro-2H-benzo[e][1,2,4]thiadiazin-2-yl)acetamido)-N-(4-methoxyphenyl)-N-methyl-3-phenylpropanamide]	0–20%		
COc1ccc(N(C)C(=O)[C@H](Cc2ccccc2)NC(=O)CN2CCN(S(=O)(=O)c3ccc(N)cc3)CC2=O)cc1 [Compound 11l, (S)-2-(2-(4-((4-aminophenyl)sulfonyl)-2-oxopiperazin-1-yl)acetamido)-N-(4-methoxyphenyl)-N-methyl-3-phenylpropanamide]	0–20%	308	death after single dose ([2]; 1000 mg/kg): No death was observed; acute toxicity / tolerability ([2]; single dose 1000 mg/kg, one week): no acute toxicity; also recorded: well-tolerated; RT activity as compared to the DMSO control [3]: 95±15%; V [4]: 5.7524 L/kg
Cc1[nH]c2ccccc2c1CC(=O)N[C@@H](Cc1ccccc1)C(=O)N(C)c1ccccc1 [PF-74, reference compound]	around 40%	972	
COc1ccc(N(C)C(=O)[C@H](Cc2ccccc2)NC(=O)CNS(=O)(=O)c2cccc(F)c2)cc1 [Compound 6k, (S)-2-(2-((3-fluorophenyl)sulfonamido)acetamido)-N-(4-methoxyphenyl)-N-methyl-3-phenylpropanamide]	0–20%		
C[C@]12CC[C@H]3[C@@H](CCC4=CC(=O)CC[C@@]43C)[C@@H]1CC[C@@H]2O [Testosteron^e, Testosterone]		85.7	CLint(mic) (HLM 0.5 mg protein/mL): 95.2 µL/min/mg; Remaining (T=60min) (HLM 0.5 mg protein/mL, 60 min): 6.1%; Remaining (NCF=60min) (no cofactor (no NADPH), 60 min): 84.0%
O=C(O)Cc1ccccc1Nc1c(Cl)cccc1Cl [Diclofenac]		84.3	
